{"source": "patent EP1092007B1", "about": "“A NEW IMPROVED ENZYME CONTAINING GRANULE” (Novozymes A/S, priority 1998, dated 2000)", "data": [{"test": "Measurement of constant humidity values for coating compounds", "assay_type": "physicochemical", "conditions": "20°C; % RH of air over saturated aqueous solution", "description": "(§1) The term \"constant humidity\" (in the context of the invention sometimes abbreviated as CH) of a compound or substance is to be understood as the % RH of atmospheric air in equilibrium with a saturated aqueous solution of said compound in contact with the solid phase of said compound, all confined within a closed space at a given temperature. […] Accordingly CH20 °C =50% for a compound means that air with a 50% humidity will be in equilibrium with a saturated aqueous solution of the compound at 20°C. Accordingly the term constant humidity is a measure of the hygroscopic properties of a compound.\n(§2) The constant humidity of water soluble compound coating materials were measured by preparing a saturated aqueous solution with excess of solid phase of the compound in an open beaker.", "units": {"CH20°C (constant humidity)": "%"}, "values": [{"molecule": "O=P([O-])([O-])O.[Na+].[Na+]", "note": "[Na2HPO4]", "CH20°C (constant humidity)": 95}, {"molecule": "O=S(=O)([O-])[O-].[Zn+2]", "note": "[ZnSO4]", "CH20°C (constant humidity)": 90}, {"molecule": "O=S(=O)([O-])O.[K+]", "note": "[KHSO4]", "CH20°C (constant humidity)": 86}, {"molecule": "N.O=P(O)(O)O", "note": "[(NH4)H2PO4]", "CH20°C (constant humidity)": 93.1}, {"molecule": "O=S(=O)([O-])[O-].[Na+].[Na+]", "note": "[Na2SO4, sodium sulfate]", "CH20°C (constant humidity)": 93}, {"molecule": "O=P([O-])(O)O.[K+]", "note": "[KH2PO4]", "CH20°C (constant humidity)": 92}]}, {"test": "Measurement of constant humidity values for coating compounds", "assay_type": "physicochemical", "conditions": "25°C", "description": "as §1, §2", "values": [{"molecule": "O=C[O-].[Na+]", "note": "[sodium formiate]", "Constant humidities at 25°C": 56}, {"molecule": "N.N.O=S(=O)(O)O", "note": "[Ammonium sulfate]", "Constant humidities at 25°C": 79}, {"molecule": "O=S(=O)([O-])[O-].[Na+].[Na+]", "note": "[Na2SO4, sodium sulfate]", "Constant humidities at 25°C": 93}, {"molecule": "O=C([O-])CC(O)(CC(=O)[O-])C(=O)[O-].[Na+].[Na+].[Na+]", "note": "[sodium citrate]", "Constant humidities at 25°C": 86}]}, {"test": "Measurement of constant humidity values for coating compounds", "assay_type": "physicochemical", "conditions": "25°C; % RH of air over saturated aqueous solution", "description": "as §1, §2", "units": {"CH25°C (constant humidity)": "%"}, "values": [{"molecule": "O=P([O-])([O-])[O-].[Na+].[Na+].[Na+]", "note": "[Na3PO4]", "CH25°C (constant humidity)": 92}, {"molecule": "O=S(=O)([O-])[O-].[K+].[K+]", "note": "[Example K2SO4, K2SO4]", "CH25°C (constant humidity)": 99}, {"molecule": "O=C([O-])CC(O)(CC(=O)[O-])C(=O)[O-].[Na+].[Na+].[Na+]", "note": "[sodium citrate]", "CH25°C (constant humidity)": 86}]}]}
